Source: patent publication US20030130225A1, “Novel methods of treating local fungal and bacterial infections” (priority 2001, published 2003)
Where two headings read alike, the source gives them in different places.

Legend:
[1] = system: Candida albicans; conditions: for rabbits with no Candida albicans in culture of the vaginal mucosa: 72 hours post dosage
Text: Thirty-five female albino rabbits vaginally infected with Candida albicans were randomly assigned to seven dosage groups, 5 rabbits per group.

[2] = human, in vivo, po; cited from earlier work
[3] = system: Candida vaginitis; conditions: single dose oral; cited from earlier work

With OC(Cn1cncn1)(Cn1cncn1)c1ccc(F)cc1F [Fluconazole, fluconazole] the “rabbits with no Candida albicans in culture of the vaginal mucosa” value (shortened to “rabbits with no Candida albicans”) ([1]; 0.5 mg/kg oral fluconazole once) was 40%, the “rabbits with no Candida albicans” value ([1]; 1.0 mg/kg oral fluconazole once) was 100% and the “rabbits with no Candida albicans” value ([1]; 2.0 mg/kg oral fluconazole once) was 60%. The “irritation to the vaginal epithelium” value ([1]; rabbit, in vivo) was “mild irritation”, the “time to reach peak plasma concentration” value [2] was “about 3 hours” and the “time to reach vaginal tissue and vaginal fluid” value [2] was 2 to 3 days. For the same molecule, the “average time for the onset of symptom relief” value [3] was “about 2.4 days”.
